Data on twelve compounds can be found in PubChem BioAssay (NCI).

Molecules are shown by their SMILES.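 Step 1: Grow cells in 96-well plates. Step 2: Expose to compound for 48 hours at 5 concentrations. Step 3: Interpolate endpoints linearly; if unreached, use highest concentration. GI50 is the concentration that inhibits growth by half. TGI is the concentration that stops growth completely.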 Where a SMILES comes first, the peptide text is derived from it. The star is where a group is joined. Boc = CC(C)(C)OC(=O)*

Some test systems named below: SK-MEL-28 melanoma; UACC-62 melanoma; HOP-62 NSCLC; TK-10 renal; EKVX NSCLC; LOX IMVI melanoma; SK-OV-3 ovarian; NCI-H460 lung; NCI-H23 lung; SN12C renal; MDA-MB-231 breast; RXF 393 renal.
Holding throughout (test): inhibition of tumour cell growth, NCI panel, 48 h

For `C=C1CC(COc2cc(=O)oc3ccccc23)(c2ccccc2)OC1=O` (stereo not drawn), the TGI in the assay on SK-MEL-28 melanoma turned out to be 6.13 µM; in the assay with UACC-62 melanoma, 2.92 µM; with HOP-62 NSCLC it was 22.9 µM; in the assay on TK-10 renal it was 3.89 µM; with EKVX NSCLC, 13.5 µM; with LOX IMVI melanoma, 3.2 µM. In addition, the TGI in the assay on SK-OV-3 ovarian came out at 16.1 µM; in the assay on NCI-H460 lung, 23.7 µM; with NCI-H23 lung, 4.92 µM; in the assay with SN12C renal, 6.92 µM; in the assay with MDA-MB-231 breast, 11.9 µM.

As for `COC(=O)CNC(=O)C(Cc1ccccc1)NC(=O)C(CCSC)NC(=O)C(Cc1ccc(O)cc1)NC(=O)OC(C)(C)C` (stereo not drawn) (Boc-YMFG-OMe; configuration not given here), the TGI in the assay on SK-MEL-28 melanoma is 34.8 µM; in the assay with UACC-62 melanoma it was greater than 100 µM; with HOP-62 NSCLC, greater than 100 µM; with TK-10 renal, greater than 100 µM; with LOX IMVI melanoma, 32.7 µM; in the assay with SK-OV-3 ovarian, greater than 100 µM. Further, the TGI in the assay on NCI-H460 lung was greater than 100 µM; with NCI-H23 lung, greater than 100 µM; in the assay on RXF 393 renal, greater than 100 µM; in the assay on SN12C renal, greater than 100 µM; with MDA-MB-231 breast it was 52.8 µM.

As to `COC(=O)CC(C(C(=O)OC)C(=O)OC)N1C(=O)OCC1c1ccccc1` (stereo not drawn), the TGI in the assay on SK-MEL-28 melanoma, in the assay on UACC-62 melanoma, with HOP-62 NSCLC, in the assay with TK-10 renal, in the assay on EKVX NSCLC and with LOX IMVI melanoma was greater than 100 µM throughout. The TGI in the assay with SK-OV-3 ovarian, in the assay with NCI-H460 lung, in the assay on NCI-H23 lung, in the assay with RXF 393 renal and in the assay on SN12C renal was greater than 100 µM each time.

For the compound `CN1C(=O)C2C(=O)N(Cc3ccccc3)CC(=O)N2c2cccnc21` (stereo not drawn), the TGI with UACC-62 melanoma, in the assay with HOP-62 NSCLC, with TK-10 renal, with EKVX NSCLC, with LOX IMVI melanoma and with SK-OV-3 ovarian was greater than 100 µM each time. In addition, the TGI with NCI-H460 lung, in the assay on NCI-H23 lung, with RXF 393 renal and with MDA-MB-231 breast was greater than 100 µM each time.

In the case of `CCCc1cc(=O)c2c(C)c3[nH]c4ccc(Cl)cc4c3c(C)c2[nH]1`, the TGI was determined as 3.14 µM in the assay on SK-MEL-28 melanoma; 6.15 µM in the assay on HOP-62 NSCLC; 4.06 µM in the assay with TK-10 renal; 7.72 µM with EKVX NSCLC; 3.33 µM in the assay on LOX IMVI melanoma; 3.79 µM with NCI-H460 lung. The TGI came out at 10.5 µM in the assay with NCI-H23 lung, 3.86 µM in the assay with RXF 393 renal, 5.31 µM with SN12C renal and 3.97 µM with MDA-MB-231 breast.

In the case of `CC(C)(C)c1ccc2c(c1)CNCCNCc1cc(C(C)(C)C)ccc1OCC1(CO2)COc2ccc(C(C)(C)C)cc2CNCCNCc2cc(C(C)(C)C)ccc2OC1`, the TGI with SK-MEL-28 melanoma was 3.05 µM; in the assay with UACC-62 melanoma, 2.76 µM; in the assay with HOP-62 NSCLC, 2.66 µM; in the assay with TK-10 renal, 3.32 µM; in the assay with EKVX NSCLC, 2.42 µM; in the assay with LOX IMVI melanoma, greater than 100 µM. Further, the TGI in the assay on NCI-H460 lung was determined as 0.609 µM; with NCI-H23 lung, 2.59 µM; in the assay with MDA-MB-231 breast it was 0.623 µM.

Take `CC1=C(O)C(=O)[C@@H]2O[C@@H]2C1=O`: the TGI in the assay on SK-MEL-28 melanoma is 16.7 µM; in the assay with UACC-62 melanoma, 21.7 µM; with HOP-62 NSCLC, 100 µM; in the assay on EKVX NSCLC, 33.9 µM; in the assay with LOX IMVI melanoma, 26.8 µM; in the assay with SK-OV-3 ovarian, 107 µM. Further, the TGI in the assay on NCI-H460 lung was found to be 47.4 µM; with NCI-H23 lung, 35.8 µM; with RXF 393 renal it was 7.88 µM; in the assay on SN12C renal, 52.4 µM.

In the case of `O=c1[nH]n2c(=O)cc[nH]c2c1-c1nnns1`, the TGI with SK-MEL-28 melanoma, with HOP-62 NSCLC, in the assay on TK-10 renal, in the assay on EKVX NSCLC, in the assay with LOX IMVI melanoma and with SK-OV-3 ovarian was greater than 100 µM each time. The TGI in the assay on NCI-H460 lung, with NCI-H23 lung, in the assay on RXF 393 renal and in the assay with SN12C renal was greater than 100 µM in each case.

Regarding `NC(N)=NS(=O)(=O)c1ccc(NCc2c3ccccc3[n+]([O-])c3ccccc23)cc1`, the TGI in the assay with SK-MEL-28 melanoma was 62.5 µM; with UACC-62 melanoma, greater than 100 µM; with HOP-62 NSCLC, greater than 100 µM; with TK-10 renal, greater than 100 µM; in the assay on EKVX NSCLC it was greater than 100 µM; in the assay with LOX IMVI melanoma, 90.9 µM. The TGI in the assay on SK-OV-3 ovarian, in the assay on NCI-H460 lung, in the assay with NCI-H23 lung and in the assay with SN12C renal was greater than 100 µM in each case.

With `O=C(CC(=O)n1nc(-c2ccccc2)c(N=Nc2ccccc2C(=O)O)c1-c1ccccc1)Nc1ccc(Cl)cc1`, the TGI in the assay on SK-MEL-28 melanoma, in the assay with UACC-62 melanoma, in the assay on HOP-62 NSCLC, in the assay with TK-10 renal, in the assay on EKVX NSCLC and in the assay on NCI-H460 lung was greater than 100 µM throughout. The TGI in the assay on NCI-H23 lung was 93.9 µM; in the assay on RXF 393 renal, 80.8 µM; with MDA-MB-231 breast it was greater than 100 µM.

Take `Cc1c(F)c(N)c2c(=O)cc(-c3ccc(NC(=O)CN(C)C)c(F)c3)oc2c1F`: the TGI in the assay on SK-MEL-28 melanoma was greater than 100 µM; in the assay with UACC-62 melanoma, greater than 94.2 µM; in the assay on HOP-62 NSCLC it was greater than 100 µM; with TK-10 renal, greater than 100 µM; with LOX IMVI melanoma it was greater than 100 µM; in the assay on SK-OV-3 ovarian, greater than 100 µM. The TGI in the assay with NCI-H460 lung was greater than 100 µM; with NCI-H23 lung it was greater than 100 µM; in the assay on RXF 393 renal, greater than 100 µM; with SN12C renal, greater than 100 µM; in the assay on MDA-MB-231 breast, greater than 83.7 µM. The GI50 in the assay with HOP-62 NSCLC is greater than 100 µM.

Consider `COc1ccc(C(C#N)NNC(=O)c2ccccc2O)cc1OC` (stereo not drawn), for which the TGI in the assay on SK-MEL-28 melanoma was greater than 100 µM; in the assay with UACC-62 melanoma it was 0.908 µM; in the assay on HOP-62 NSCLC, greater than 100 µM; in the assay on TK-10 renal, greater than 100 µM; with LOX IMVI melanoma, 59.3 µM; in the assay with SK-OV-3 ovarian, greater than 100 µM. For the same compound, the TGI in the assay with NCI-H460 lung is greater than 100 µM; in the assay on NCI-H23 lung it was 28.4 µM; with RXF 393 renal it was 36.4 µM; in the assay with SN12C renal it was greater than 100 µM.
